Values quoted from earlier work, collected in patent US20070065513A1, “Stable lansoprazole formulation” (priority 2003, published 2007).
Read-outs that look alike come from different tables or passages of the source.

- half life (pH 6.5): 18 h
- half life (pH 11): about 300 days
- half-life of degradation (pH values below 4.0): less than 10 minutes
SMILES: COc1ccc2[nH]c([S+]([O-])Cc3ncc(C)c(OC)c3C)nc2c1 (stereo not drawn) [Omeprazole, 5methoxy-2(((4-methoxy-3,5-dimethyl-2-pyridinyl)methyl)sulfinyl)-1H-benzimidazole]
